Measurements reported in ChEMBL document CHEMBL4665688, “Discovery of AB680: A Potent and Selective Inhibitor of CD73” (J Med Chem, 2020).

Tests used:
5'-nucleotidase = target: T1, 5'-nucleotidase (Mus musculus, UniProt Q61503); assay: Inhibition of CD73 in mouse CD8-positive T cells using AMP as substrate preincubated for 60 mins followed by substrate addition and measured after 2.5 hrs by PiColorLock gold reagent based colorimetric assay; type: cell-based, CD8-positive T cell
T1 sequence (Q61503 whole entry): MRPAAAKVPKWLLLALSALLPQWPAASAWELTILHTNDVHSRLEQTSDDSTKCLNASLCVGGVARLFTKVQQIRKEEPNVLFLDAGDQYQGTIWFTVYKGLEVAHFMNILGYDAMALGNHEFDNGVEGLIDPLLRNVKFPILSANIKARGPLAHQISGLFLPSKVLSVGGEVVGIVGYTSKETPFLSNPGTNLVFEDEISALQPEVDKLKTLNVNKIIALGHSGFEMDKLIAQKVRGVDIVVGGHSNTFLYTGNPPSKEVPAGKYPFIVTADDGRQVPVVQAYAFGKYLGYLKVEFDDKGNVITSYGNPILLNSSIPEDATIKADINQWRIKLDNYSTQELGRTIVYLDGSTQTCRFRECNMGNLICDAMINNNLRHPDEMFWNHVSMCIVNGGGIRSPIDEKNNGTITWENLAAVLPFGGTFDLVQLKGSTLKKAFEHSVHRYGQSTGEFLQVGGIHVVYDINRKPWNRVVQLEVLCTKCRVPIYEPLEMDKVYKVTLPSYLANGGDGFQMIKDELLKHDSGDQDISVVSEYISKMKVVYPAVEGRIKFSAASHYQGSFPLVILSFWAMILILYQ

[1] = target: T2, Ectonucleoside triphosphate diphosphohydrolase 1 (Homo sapiens, UniProt P49961); assay: Inhibition of CD39 (unknown origin)
T2 sequence (P49961 whole entry): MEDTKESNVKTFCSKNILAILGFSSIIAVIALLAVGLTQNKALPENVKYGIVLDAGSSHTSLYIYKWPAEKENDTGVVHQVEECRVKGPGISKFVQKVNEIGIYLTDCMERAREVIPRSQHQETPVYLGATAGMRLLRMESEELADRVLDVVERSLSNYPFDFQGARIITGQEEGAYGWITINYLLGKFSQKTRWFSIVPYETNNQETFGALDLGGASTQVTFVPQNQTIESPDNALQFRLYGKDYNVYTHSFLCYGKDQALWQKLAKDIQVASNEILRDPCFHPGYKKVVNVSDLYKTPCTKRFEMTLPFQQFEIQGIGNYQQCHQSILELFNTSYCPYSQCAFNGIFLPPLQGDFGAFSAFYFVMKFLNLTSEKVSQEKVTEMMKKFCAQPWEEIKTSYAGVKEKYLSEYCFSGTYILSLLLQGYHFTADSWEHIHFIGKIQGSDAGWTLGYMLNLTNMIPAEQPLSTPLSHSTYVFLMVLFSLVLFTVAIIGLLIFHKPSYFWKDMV

[2] = target: T3, Ectonucleoside triphosphate diphosphohydrolase 2 (Homo sapiens, UniProt Q9Y5L3); assay: Inhibition of NTPDase 2 (unknown origin) expressed in CHO cells using ATP as substrate preincubated for 1 hr followed by substrate addition and measured after 50 mins by PiColorLock gold reagent based colorimetric assay; type: cell-based
T3 sequence (Q9Y5L3 whole entry): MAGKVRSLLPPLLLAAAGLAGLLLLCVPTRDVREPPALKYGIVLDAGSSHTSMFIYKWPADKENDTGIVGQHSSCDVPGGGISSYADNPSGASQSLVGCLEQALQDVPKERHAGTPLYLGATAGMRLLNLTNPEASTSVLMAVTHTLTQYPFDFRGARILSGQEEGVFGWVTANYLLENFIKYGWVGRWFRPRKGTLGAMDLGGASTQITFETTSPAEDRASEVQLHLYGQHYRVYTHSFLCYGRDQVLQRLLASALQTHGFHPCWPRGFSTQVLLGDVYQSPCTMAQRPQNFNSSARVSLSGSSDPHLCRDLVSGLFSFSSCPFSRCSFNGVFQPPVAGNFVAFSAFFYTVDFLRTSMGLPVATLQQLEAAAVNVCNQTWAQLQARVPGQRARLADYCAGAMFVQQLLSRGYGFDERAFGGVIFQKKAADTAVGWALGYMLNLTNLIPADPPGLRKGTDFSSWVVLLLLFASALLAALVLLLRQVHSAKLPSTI

[3] = target: T4, Ectonucleoside triphosphate diphosphohydrolase 8 (Homo sapiens, UniProt Q5MY95); assay: Inhibition of NTPDase 8 (unknown origin) expressed in CHO cells using ATP as substrate preincubated for 1 hr followed by substrate addition and measured after 50 mins by PiColorLock gold reagent based colorimetric assay; type: cell-based
T4 sequence (Q5MY95 whole entry): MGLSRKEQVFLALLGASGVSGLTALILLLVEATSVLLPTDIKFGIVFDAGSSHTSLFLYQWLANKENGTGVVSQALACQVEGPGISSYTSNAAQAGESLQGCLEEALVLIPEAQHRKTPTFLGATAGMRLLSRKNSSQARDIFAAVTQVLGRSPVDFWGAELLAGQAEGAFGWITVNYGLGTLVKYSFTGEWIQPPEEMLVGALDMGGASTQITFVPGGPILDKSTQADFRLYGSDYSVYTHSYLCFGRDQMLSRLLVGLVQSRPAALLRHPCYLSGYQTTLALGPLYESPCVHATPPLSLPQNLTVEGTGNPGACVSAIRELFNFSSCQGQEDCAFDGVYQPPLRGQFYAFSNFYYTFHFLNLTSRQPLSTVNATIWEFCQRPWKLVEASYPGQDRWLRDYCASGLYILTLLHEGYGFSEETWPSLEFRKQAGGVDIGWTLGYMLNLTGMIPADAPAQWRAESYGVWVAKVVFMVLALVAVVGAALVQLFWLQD

[4] = Clearance in mouse at 0.5 mg/kg, iv; type: ADME, organism-based; settings: in vivo
[5] = Volume of distribution at steady state in mouse at 0.5 mg/kg, iv; type: ADME, organism-based; settings: in vivo, read-out: Vdss
[6] = Half life in mouse at 0.5 mg/kg, iv; type: ADME, organism-based; settings: in vivo
[7] = Fraction unbound in mouse plasma; type: ADME, cell-free; parameters: dose or concentration left out as unconfirmed
[8] = Volume of distribution at steady state in Sprague-Dawley rat at 0.5 mg/kg, iv; type: ADME, organism-based; settings: in vivo, read-out: Vdss
[9] = Half life in Sprague-Dawley rat at 0.5 mg/kg, iv; type: ADME, organism-based; settings: in vivo
[10] = Fraction unbound in Sprague-Dawley rat plasma; type: ADME, cell-free
[11] = Clearance in dog at 0.5 mg/kg, iv; type: ADME, organism-based, Canis lupus familiaris; settings: in vivo
[12] = Volume of distribution at steady state in dog at 0.5 mg/kg, iv; type: ADME, organism-based, Canis lupus familiaris; settings: in vivo, read-out: Vdss
[13] = Half life in dog at 0.5 mg/kg, iv; type: ADME, organism-based, Canis lupus familiaris; settings: in vivo
[14] = Fraction unbound in dog plasma; type: ADME, cell-free, Canis lupus familiaris
[15] = Clearance in monkey at 0.5 mg/kg, iv; type: ADME, organism-based, Macaca mulatta; settings: rhesus monkey, in vivo
[16] = Half life in monkey at 0.5 mg/kg, iv; type: ADME, organism-based, Macaca mulatta; settings: rhesus monkey, in vivo
[17] = Fraction unbound in monkey plasma; type: ADME, cell-free, Macaca mulatta; settings: rhesus monkey

Row | IC50 (5'-nucleotidase) [µM] | IC50 [1] [µM] | IC50 [2] [µM] | IC50 [3] [µM] | clearance [4] [mL/min/kg] | Vd [5] [L/kg] | half-life [6] [h] | fraction unbound [7] | Vd [8] [L/kg] | half-life [9] [h] | fraction unbound [10] | clearance [11] [mL/min/kg] | Vd [12] [L/kg] | half-life [13] [h] | fraction unbound [14] | clearance [15] [mL/min/kg] | half-life [16] [h] | fraction unbound [17] | SMILES
1 | 0.00066 | > 10 | > 10 | > 10 | 0.417 | 0.12 | 3.5 | 0.0089 | 0.12 | 5.3 | 0.0017 | 0.833 | 1.3 | 22 | 0.083 | 0.0417 | 27 | 0.0059 | C[C@H](Nc1cc(Cl)nc2c1cnn2[C@@H]1O[C@H](COP(=O)(O)CP(=O)(O)O)[C@@H](O)[C@H]1O)c1ccccc1F
2 | 0.00016 | > 10 | > 10 | > 10 | 1.27 | 0.18 | 2 | 0.029 | 0.12 | 1.7 | 0.0095 | 1.18 | 0.84 | 13 | 0.187 | 0.04 | 28 | 0.002 | C[C@H](Nc1nc(Cl)nc2c1cnn2[C@@H]1O[C@H](COP(=O)(O)CP(=O)(O)O)[C@@H](O)[C@H]1O)c1ccccc1
3 | 0.00083 | > 10 | > 10 | > 10 | 0.25 | 0.11 | 6.5 | 0.0065 | 0.12 | 9.6 | 0.0016 | 0.567 | 0.63 | 15 | 0.102 | 0.0283 | 34 | 0.0034 | C[C@H](Nc1cc(Cl)nc2c1cnn2[C@@H]1O[C@H](COP(=O)(O)CP(=O)(O)O)[C@@H](O)[C@H]1O)c1ccc(F)cc1
